According to US4466963A, “Pharmaceutical compositions” (John Wyeth & Brother Limited, priority 1982, dated 1984):

What was measured:
[1] = test system: mice pretreated with carrageenin (hot-plate response); test: hot-plate response latency (brass hot-plate, 55° C.) of mice pretreated with carrageenin; format: in vivo; settings: for Increase in latency (sec) cf. pre-dose control / Latency (sec) pre-dose control: ibuprofen 240, meptazinol 40, combination 240 + 40 mg/kg po; for Latency (sec) pre-dose control: pre-dose baseline of the group, SEM on the line below
Experimental: For example in one method used to measure the antinociceptive effects of meptazinol, ibuprofen and combinations of the two drugs, groups of 9 mice were given 0.025 ml of 2% carrageenin (in saline) sc into the plantar surface of both hind feet 3.0 hours before treatment. The latency to a distinct response following placement of the mice on a brass hot-plate (55° C.) was measured immediately prior to dosing with vehicle (0.5% hydroxypropyl-methylcellulose in water) or with drug.
The antinociceptive response at each recording time (t) was defined as the reaction time of the mouse at time t minus the reaction time at t=0 (immediately prior to dosing).
The results after dosing with vehicle, ibuprofen (240 mg/kg), meptazinol (40 mg/kg) and a combination of ibuprofen (240 mg/kg)+meptazinol (40 mg/kg) are given in Table 1 below: […]

normal mice (tail flick) = test: tail flick latency (tail immersion in water at 50° C.); format: in vivo
Experimental: In a further experiment groups of 10 normal mice were given meptazinol (40 mg/kg), ibuprofen (240 mg/kg), a mixture containing these doses of meptazinol and ibuprofen or the requisite volume of vehicle po immediately after measuring the latency to a distinct tail flick (following tail immersion in water at 50° C.). Tail flick latencies were measured again at 30 min intervals post dosing. As the mean pre-dose latencies of mice subjected to the tail immersion procedure were so similar to one another comparisons of the actual latencies at each recording time were made (Student's "t" test).

rats (gastric erosion) = settings: well known for non-steroidal anti-inflammatory agents; cited from earlier work
[2] = brain concentration of meptazinol after administration of 3H meptazinol alone or with ibuprofen; format: in vivo, mice; settings: for brain concentration of meptazinol: meptazinol 40 mg/kg po, or meptazinol + ibuprofen 40 + 240
Experimental: In a further experiment the brain concentration of meptazinol was measured after administration of meptazinol alone or a combination of ibuprofen and meptazinol. Groups of mice were given meptazinol (40 mg/kg) alone or meptazinol+ibuprofen (40+240 mg/kg) po containing 25 μCi/mouse of^3 H meptazinol. Six mice from each group were decapitated at 30 min intervals after dosing. The brain of each animal was removed and after the removal of the cerebellum, pons and medulla the remainder was homogenised in 10 ml ice cold Tris buffer. This was immediately centrifuged at 20,000 rpm for 5 min then a single 1 ml aliquot of the supernatant was taken for counting.

[3] = rats given 3H meptazinol; previous studies; cited from earlier work
[4] = 30 min post dosing, *p < .02 cf vehicle, x p < .02 cf meptazinol alone
[5] = 60 min post dosing, *p < .02 cf vehicle
[6] = 90 min post dosing, x p < .02 cf meptazinol alone
[7] = 30 min post dosing, ibuprofen 240, meptazinol 40, combination 40 + 240 mg/kg po, x p < .05 cf meptazinol alone
[8] = 60 min post dosing, ibuprofen 240, meptazinol 40, combination 40 + 240 mg/kg po, xx p < .01 cf meptazinol alone
[9] = 90 min post dosing, ibuprofen 240, meptazinol 40, combination 40 + 240 mg/kg po
[10] = time 0 (pre-dose), ibuprofen 240, meptazinol 40, combination 40 + 240 mg/kg po, SEM on the line below

SMILES | Increase in latency (sec) cf. pre-dose control [1, 4] | Increase in latency (sec) cf. pre-dose control [1, 5] | Increase in latency (sec) cf. pre-dose control [1, 6] | Latency (sec) pre-dose control [1] | Latency to a distinct tail flick (normal mice (tail flick); [7]) | Latency to a distinct tail flick (normal mice (tail flick); [8]) | Latency to a distinct tail flick (normal mice (tail flick); [9]) | Latency to a distinct tail flick (normal mice (tail flick); [10]) | also measured
CC(C)Cc1ccc(C(C)C(=O)O)cc1 (stereo not drawn) [Ibuprofen, 2-(4-isobutylphenyl)propionic acid] | -0.72 s | -1.56 s | -1.30 s | 7.16 s | 2.75 s | 3.04 s | 3.94 s | 3.43 s | antinociceptive response ([1]; ibuprofen 240 mg/kg alone): did not produce any antinociceptive response; effect on the tail flick latency (normal mice (tail flick); ibuprofen alone, 240 mg/kg po): did not significantly affect the tail flick latency; gastric damage (rats (gastric erosion)): induce gastric damage
CCC1(c2cccc(O)c2)CCCCN(C)C1 (stereo not drawn) [Meptazinol, m-(3-ethylhexahydro-1-methyl[1H]azepin-3-yl) phenol] | 4.76 s | 3.00 s | 1.76 s | 6.41 s | 4.24 s | 4.85 s | 4.80 s | 3.43 s | Latency to a distinct tail flick (normal mice (tail flick); 30 min post dosing, meptazinol 80 mg/kg po, ***p < .0001 cf vehicle control): 6.95 s; Latency to a distinct tail flick (normal mice (tail flick); 60 min post dosing, meptazinol 80 mg/kg po, **p < .01): 6.75 s; Latency to a distinct tail flick (normal mice (tail flick); 90 min post dosing, meptazinol 80 mg/kg po, ***p < .0001 cf vehicle control): 6.37 s; antinociceptive response (tail flick) (normal mice (tail flick); meptazinol 40 mg/kg alone): did induce a significant antinociceptive response; Latency to a distinct tail flick (normal mice (tail flick); time 0 (pre-dose), meptazinol 80 mg/kg po): 3.54 s; brain concentration of meptazinol ([2]; 30 min post treatment, **p < .01 cf meptazinol alone, (SEM not stated) on the line below): 18.4 Counts × 1000/min/g brain; brain concentration of meptazinol ([2]; 60 min post treatment): 12.0 Counts × 1000/min/g brain; brain concentration of meptazinol ([2]; 90 min post treatment, *p < .05 cf meptazinol alone): 7.4 Counts × 1000/min/g brain; brain concentration of meptazinol ([2]; 120 min post treatment, **p < .01 cf meptazinol alone): 4.7 Counts × 1000/min/g brain; concentration of tritium in the brain cf. same dose of meptazinol with 240 mg/kg ibuprofen ([2]; meptazinol 40 mg/kg, 30, 60 and 90 min post dosing): approximately half; tritium in the brain in the form of meptazinol [3]: virtually all
